Regarding `CCc1oc(-c2ccc(C(F)(F)F)cc2)cc1CCCOc1cccc(CC(=O)O)c1F` [Example 6(97), [3-(3-{2-Ethyl-5-[4-(trifluoromethyl)phenyl]-3-furyl}propoxy)-2-fluorophenyl]acetic acid], the melting point is 92 to 93 °C.

In the case of `CCc1oc(-c2ccc(C(F)(F)F)cc2)cc1CCCOc1cc(CC(=O)O)ccc1Cl` [Example 6(98), [4-Chloro-3-(3-{2-ethyl-5-[4-(trifluoromethyl)phenyl]-3-furyl}propoxy)phenyl]acetic acid], the melting point was 104 to 105 °C.

`Cc1oc(-c2ccc(C(F)(F)F)cc2)cc1COc1cc(CSC(C)(C)C(=O)O)ccc1Cl` [Example 6(99), 2-{[4-Chloro-3-({2-methyl-5-[4-(trifluoromethyl)phenyl]-3-furyl}methoxy)benzyl]thio}-2-methylpropionic acid] had a melting point of 140 to 142 °C.

For the compound `CCc1oc(-c2ccc(C(F)(F)F)cc2)cc1CCCOc1nn(CC(=O)O)c2ccccc12` [Example 6(100), [3-(3-{2-Ethyl-5-[4-(trifluoromethyl)phenyl]-3-furyl}propoxy)-1H-indazol-1-yl]acetic acid], the melting point is 139 to 140 °C.

In the case of `Cc1oc(-c2ccc(C(F)(F)F)cc2)cc1COc1ccc2sc(CC(=O)O)cc2c1` [Example 6(101), [5-({2-Methyl-5-[4-(trifluoromethyl)phenyl]-3-furyl}methoxy)-1-benzothien-2-yl]acetic acid], the melting point is 153 to 154 °C.

Compound `CCc1oc(-c2ccc(C(F)(F)F)cc2)cc1CCCOc1ccc2sc(CC(=O)O)cc2c1` [Example 6(102), [5-(3-{2-Ethyl-5-[4-(trifluoromethyl)phenyl]-3-furyl}propoxy)-1-benzothien-2-yl]acetic acid] registered a melting point of 111 to 112 °C.

Compound `Cc1oc(-c2ccc(C(F)(F)F)cc2)cc1COc1ccc2sc(CCC(=O)O)cc2c1` [Example 6(103), 3-[5-({2-Methyl-5-[4-(trifluoromethyl)phenyl]-3-furyl}methoxy)-1-benzothien-2-yl]propionic acid] had a melting point of 187 to 188 °C.

In turn, `Cc1oc(-c2ccc(C(F)(F)F)cc2)cc1CCCCOc1ccc(OC(C)(C)C(=O)O)cc1` [Example 6(104), 2-Methyl-2-[4-(4-{2-methyl-5-[4-(trifluoromethyl)phenyl]-3-furyl}butoxy)phenoxy]propionic acid] returned a melting point of 67 to 69 °C.

With `Cc1oc(-c2ccc(C(F)(F)F)cc2)cc1CCCCOc1ccc(SC(C)(C)C(=O)O)cc1` [Example 6(106), 2-Methyl-2-{[4-(4-{2-methyl-5-[4-(trifluoromethyl)phenyl]-3-furyl}butoxy)phenyl]thio}propionic acid], the melting point lay in the range of 155 to 156 °C.

`Cc1oc(-c2ccc(C(F)(F)F)cc2)cc1COc1ccc2sc(CSC(C)(C)C(=O)O)cc2c1` [Example 6(107), 2-Methyl-2-({[5-({2-methyl-5-[4-(trifluoromethyl)phenyl]-3-furyl}methoxy)-1-benzothien-2-yl]methyl}thio)propionic acid] came in with a melting point of 158 to 159 °C.

As to `Cc1oc(-c2cccc(C(F)(F)F)c2)cc1COc1ccc(SC(C)(C)C(=O)O)cc1` [Example 6(108), 2-Methyl-2-{[4-({2-methyl-5-[3-(trifluoromethyl)phenyl]-3-furyl}methoxy)phenyl]thio}propionic acid], the melting point is 108 to 109 °C.

Take `Cc1oc(-c2ccc(C(F)(F)F)cc2)cc1COc1cccc(CSC(C)(C)C(=O)O)c1` [Example 6(109), 2-Methyl-2-{[3-({2-methyl-5-[4-(trifluoromethyl)phenyl]-3-furyl}methoxy)benzyl]thio}propionic acid]: the melting point fell in the range of 148 to 149 °C.

In turn, `COc1ccc(-c2cc(COc3cccc(CSC(C)(C)C(=O)O)c3)c(C)o2)cc1` [Example 6(110), 2-[(3-{[5-(4-Methoxyphenyl)-2-methyl-3-furyl]methoxy}benzyl)thio]-2-methylpropionic acid] displayed a melting point of 96 to 97 °C.

The compound `Cc1oc(-c2ccc(Cl)cc2)cc1COc1cccc(CSC(C)(C)C(=O)O)c1` [Example 6(111), 2-[(3-{[5-(4-Chlorophenyl)-2-methyl-3-furyl]methoxy}benzyl)thio]-2-methylpropionic acid] showed a melting point of 143 to 144 °C.

The compound `Cc1oc(-c2cccc(F)c2)cc1COc1cccc(CSC(C)(C)C(=O)O)c1` [Example 6(112), 2-[(3-{[5-(3-Fluorophenyl)-2-methyl-3-furyl]methoxy}benzyl)thio]-2-methylpropionic acid] registered a melting point of 116 to 117 °C.

Regarding `Cc1oc(-c2ccc(Cl)cc2)cc1COc1ccc(SC(C)(C)C(=O)O)cc1` [Example 6(114), 2-[(4-{[5-(4-Chlorophenyl)-2-methyl-3-furyl]methoxy}phenyl)thio]-2-methylpropionic acid], the melting point was 130 to 131 °C.

`Cc1oc(-c2cccc(F)c2)cc1COc1ccc(SC(C)(C)C(=O)O)cc1` [Example 6(115), 2-[(4-{[5-(3-Fluorophenyl)-2-methyl-3-furyl]methoxy}phenyl)thio]-2-methylpropionic acid] displayed a melting point of 146 to 147 °C.

With `Cc1oc(-c2ccccc2C(F)(F)F)cc1COc1ccc(SC(C)(C)C(=O)O)cc1` [Example 6(117), 2-Methyl-2-{[4-({2-methyl-5-[2-(trifluoromethyl)phenyl]-3-furyl}methoxy)phenyl]thio}propionic acid], the melting point was 115 to 116 °C.

For the compound `Cc1oc(-c2ccc(C(F)(F)F)cc2)cc1COc1cccc(SC(C)(C)C(=O)O)c1` [Example 6(118), 2-Methyl-2-{[3-({2-methyl-5-[4-(trifluoromethyl)phenyl]-3-furyl}methoxy)phenyl]thio}propionic acid], the melting point was in the range of 127 to 128 °C.

`Cc1oc(-c2ccccc2)cc1COc1cccc(CSC(C)(C)C(=O)O)c1` [Example 6(119), 2-Methyl-2-({3-[(2-methyl-5-phenyl-3-furyl)methoxy]benzyl}thio)propionic acid] returned a melting point of 113 to 114 °C.

Regarding `Cc1ccc(-c2cc(COc3cccc(CSC(C)(C)C(=O)O)c3)c(C)o2)cc1` [Example 6(120), 2-Methyl-2-[(3-{[2-methyl-5-(4-methylphenyl)-3-furyl]methoxy}benzyl)thio]propionic acid], the melting point lay in the range of 121 to 122 °C.

As for `Cc1oc(-c2ccc(C(F)(F)F)cc2)cc1CCCOc1ccc(SC(C)(C)C(=O)O)cc1` [Example 6(122), 2-Methyl-2-{[4-(3-{2-methyl-5-[4-(trifluoromethyl)phenyl]-3-furyl}propoxy)phenyl]thio}propionic acid], the melting point was in the range of 127 to 128 °C.

`Cc1oc(-c2ccc(C(F)(F)F)cc2)cc1COc1ccc(CCC(=O)O)cc1` [Example 6(123), 3-[4-({2-Methyl-5-[4-(trifluoromethyl)phenyl]-3-furyl}methoxy)phenyl]propionic acid] showed a melting point of 182 to 183 °C.

Compound `Cc1oc(-c2ccc(C(F)(F)F)cc2)cc1COc1cccc(-c2cccc(C(=O)O)c2)c1` [Example 6(125), 3′-({2-Methyl-5-[4-(trifluoromethyl)phenyl]-3-furyl}methoxy)-1,1′-biphenyl-3-carboxylic acid] came in with a melting point of 178 to 179 °C.

As usually defined, the melting point is the temperature of the solid-liquid transition.

Source of the values: patent US7553867B2, “Furan or thiophene derivative and medicinal use thereof” (Takeda Pharmaceutical Company Limited, priority 2002, dated 2009).
